In PMC8913687, “Novel indolic AMPK modulators induce vasodilatation through activation of the AMPK–eNOS–NO pathway” (Scientific Reports, 2022):
Like-named read-outs stand apart in the source and are kept apart here.

Assays:
AMPKα1β1γ1 [1] = target: T1, AMPKα1β1γ1 (Homo sapiens, UniProt Q13131+Q9Y478); test: SPR at […]; also […] inhibition at […] in ADP-Glo kinase assay; assay type: binding
T1 construct: gene PRKAA1; recombinant AMPK isoform α1β1γ1; with AMPK β1 (PRKAB1) and γ1 (PRKAG1)

AMPKα1β1γ1 [2] = target: T1, AMPKα1β1γ1; test: as above; assay type: binding; remark: listed apart in the source
AMPKα1β1γ1 [3] = target: T1, AMPKα1β1γ1; test: SPR, […] series and competition with […] ATP; assay type: binding
AMPKα1β1γ1 [4] = target: T1, AMPKα1β1γ1; test: ADP-Glo kinase assay with SAMS peptide, Lineweaver-Burk kinetics vs ATP; binding also shown by SPR ([…] RU at […]); assay type: biochemical

T1 sequence (Q13131 whole entry, canonical isoform): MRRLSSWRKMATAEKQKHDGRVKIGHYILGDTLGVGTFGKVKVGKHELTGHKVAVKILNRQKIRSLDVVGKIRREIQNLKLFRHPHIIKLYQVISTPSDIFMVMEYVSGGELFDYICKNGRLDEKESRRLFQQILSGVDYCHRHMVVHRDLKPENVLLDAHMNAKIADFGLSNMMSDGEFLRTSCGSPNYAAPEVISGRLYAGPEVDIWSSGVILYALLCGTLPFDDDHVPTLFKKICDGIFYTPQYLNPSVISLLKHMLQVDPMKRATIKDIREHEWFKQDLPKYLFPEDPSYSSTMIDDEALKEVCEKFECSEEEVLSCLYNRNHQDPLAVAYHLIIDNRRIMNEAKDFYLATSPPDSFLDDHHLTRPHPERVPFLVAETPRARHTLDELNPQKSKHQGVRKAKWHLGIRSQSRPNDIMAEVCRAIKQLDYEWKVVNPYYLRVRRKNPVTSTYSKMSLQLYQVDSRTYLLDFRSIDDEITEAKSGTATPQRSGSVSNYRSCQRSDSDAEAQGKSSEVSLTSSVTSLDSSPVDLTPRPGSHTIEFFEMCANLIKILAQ
T1 sequence (Q9Y478 2-270): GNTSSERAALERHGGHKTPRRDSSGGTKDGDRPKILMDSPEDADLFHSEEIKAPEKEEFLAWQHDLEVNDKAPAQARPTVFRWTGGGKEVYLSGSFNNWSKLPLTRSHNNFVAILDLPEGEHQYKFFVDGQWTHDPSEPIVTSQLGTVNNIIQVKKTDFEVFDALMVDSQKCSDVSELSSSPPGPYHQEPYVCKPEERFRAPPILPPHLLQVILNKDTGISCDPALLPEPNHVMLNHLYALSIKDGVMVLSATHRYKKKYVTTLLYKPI
T1 sequence (P54619 whole entry partner, canonical isoform): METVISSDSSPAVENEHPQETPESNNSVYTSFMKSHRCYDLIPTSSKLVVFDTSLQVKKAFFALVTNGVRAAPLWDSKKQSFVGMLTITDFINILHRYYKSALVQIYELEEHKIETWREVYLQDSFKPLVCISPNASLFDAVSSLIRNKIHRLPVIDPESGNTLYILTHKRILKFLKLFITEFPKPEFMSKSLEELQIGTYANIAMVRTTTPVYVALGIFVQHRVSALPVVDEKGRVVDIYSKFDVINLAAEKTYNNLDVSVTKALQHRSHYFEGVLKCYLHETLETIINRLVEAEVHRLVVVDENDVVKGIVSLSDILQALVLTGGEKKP

Compound: O=C(O)c1[nH]c2ccccc2c1-c1ccc(-c2ccccc2)cc1 [IND7]
- Binding 100 μM (RU)^b / AMPK α1:β1:γ1 (AMPKα1β1γ1 [1]): 13.6 RU

Compound: O=C(O)c1[nH]c2ccccc2c1-c1ccc(Oc2ccccc2)cc1 [IND8]
- Binding 100 μM (RU)^b / AMPK α1:β1:γ1 (AMPKα1β1γ1 [2]): 14.6 RU

Compound: CNC(=O)c1ccccc1Oc1nc(Nc2cc(OC)c(OC)c(OC)c2)ncc1Br [SBI-0206965]
- SPR, 10-100 μM series and competition with 200 μM ATP (AMPKα1β1γ1 [3]): sensorgrams showed a progressive increase in the binding, which was much larger for SBI-0206965

Compound: O=C(O)c1[nH]c2ccccc2c1-c1ccc(OCc2ccccc2)cc1 [IND6, 3-(4-(Benzyloxy)phenyl)-1H-indole-2-carboxylic acid]
- Ki (AMPKα1β1γ1 [4]): 6.9 µM
